Publication PMC6152156 (Molecules : A Journal of Synthetic Chemistry and Natural …, 2017)
Where two headings read alike, the source gives them in different places.

Experiments:
Type in all cases: biochemical
BuChE [1] = target: T1, BuChE (Homo sapiens, UniProt P06276); assay: In vitro BuChE inhibitory assay (Ellman-type, human plasma); conditions: BuChE from human plasma, BuSCh substrate, 60 min, 37 °C
T1 construct: BuChE was obtained from human plasma (purchased from Beijing Red Cross Blood Center China); tissue Beijing Red Cross Blood Center China; host or cells: human plasma, diluted 200-fold with 0.05 M PBS
Protocol: BuChE was obtained from human plasma (purchased from Beijing Red Cross Blood Center China). Before utilization, human plasma was diluted 200-fold with 0.05 M PBS. Five serial dilutions of samples are determined to obtain BuChE inhibitory activity. The BuChE reaction system is similar to the assay above, including 10 μL samples, 40 μL diluted plasma sample, 70 μL 7.5 mM S-butyrylthiocholine (BuSCh), and 80 μL 0.25 mg/mL DTNB. After incubation at 37 °C for 60 min, the absorbance intensity of the system was measured at wavelength 412 nm.

AChE [2] = target: T2, AChE (Rattus norvegicus, UniProt P37136); assay: In vitro AChE inhibitory assay (Ellman's method)
T2 construct: AChE was derived from the SD rat brains by homogenizing the brain with 20-fold saline solution; from tissue; host or cells: SD rat brain homogenate (supernatant after 800 x g)
Protocol: The AChE inhibitory activity of DL0410 derivatives was assessed by determining the hydrolysis product of Acetylthiocholine iodide (ASCh) using the Ellman’s method. 5,5′-Dithiobis (2-nitrobenzoic acid) (DTNB), and the substrate ASCh were purchased from Sigma Aldrich. AChE was derived from the SD rat brains by homogenizing the brain with 20-fold saline solution, and then centrifuged at 800× g for 20 min at 4 °C. To acquire the inhibition of AChE activity, five serial dilutions of samples were measured. A Spectra Max M5 microplate reader (Molecular Devices, Sunnyvale, CA, USA) was utilized for the assay for AChE reaction system with 96-well plates in 0.05 M phosphate-buffered solution (PBS). The reaction system includes 10 μL sample, 20 μL AChE solution, 60 μL 3.75 mM ASCh, and 80 μL 0.25 mg/mL DTNB. It took 60 min at 37 °C for incubation, and the absorbance intensity of AChE reaction system was quantified at 412 nm.

AChE [3] = target: T2, AChE; assay: AChE kinetic study (Lineweaver-Burk and Dixon plots); conditions: for Ki: Dixon plot, inhibitor 0.1, 0.3, 1 μM, substrate 1.25-20 mM, n = 3; for type of inhibition of AChE: Lineweaver-Burk plot
Protocol: (§1) To have an insight into how structure modification affected the inhibitory activities, molecular docking and kinetics studies were performed for DL0410, compounds 6-1 and 7-6. After the docking parameters were set, the crystal poses of donepezil and N-((1-benzylpiperidin-3-yl)methyl)-N-(2-methoxyethyl) naphthalene-2-sulfonamide were first re-docked into the binding site pocket of AChE and BuChE, respectively. Donepezil is a mixed-type inhibitor of AChE used in the palliative treatment of AD [25]. N-((1-benzylpiperidin-3-yl)methyl)-N-(2-methoxyethyl) naphthalene-2-sulfonamide is a potent, selective, and reversible human BuChE inhibitor, which can improve memory, cognitive functions, and learning abilities. The root mean square deviation (RMSD) values between the docking and initial poses were 0.872 and 1.253, respectively, which implied that the docking models built by CDOCKER could reproduce the crystal binding model and were suitable for the AChE and BuChE system. DL0410 and two highly inhibitory compounds (compounds 6-1 and 7-6) were docked to the active pockets of AChE and BuChE. For AChE, these three compounds could dock to TRP86 of CAS via π-Alkyl interaction or electrostatic attraction, near the bottom of the active site gorge, and TRP286 of PAS via π-π stacking interaction, near its entrance (Figure 4). The value of –CDOCKER INTERACTION ENERGY was followed by compound 6-1 > compound 7-6 > DL0410. The dibenzofuran of compound 6-1 formed stronger π-π stacking interaction with TYR341 and TRP286, and the carbonyl formed hydrogen bond with TYR72. In addition, hydrogen bond interaction of compound 7-6 made it high inhibition for AChE. […] There existed more hydrogen bonds for compound 7-6, and a highly electronegative fluorine atom caused its strong interaction with GLY116. Therefore, the fluorine atom substitution and the structure of dibenzofuran made compounds 6-1 and 7-6 different from DL0410. Compound 7-6 formed more hydrogen bonds with AChE and BuChE. The structure of dibenzofuran caused the extension direction of compound 6-1 to change, which was more conducive to forming electrostatic attractive interactions. In silico results were consistent with the kinetics studies of AChE and BuChE. […] The inhibition kinetic data were analyzed by Lineweaver-Burk and Dixon plots. The Lineweaver-Burk plot provides a useful means of distinguishing among competitive inhibition, non-competitive inhibition, and mixed inhibition, whereas the merit of the Dixon plot is that one can expediently determine Ki from the kinetic data. […] The results of the kinetics studies also validated that the three compounds were, indeed, capable of binding to CAS and PAS of AChE/BuChE. The PAS site could […] their catalytic efficiency, which led to high inhibitory effects.
(§2) Figure 6 The Lineweaver-Burk plots of DL0410, compound 6-1 and compound 7-6 on AChE inhibitory activity (A–C). The Lineweaver-Burk plots of DL0410, compound 6-1 and compound 7-6 on BuChE inhibitory activity (D–F). Kinetic analysis of AChE and BuChE was performed by using three effective concentrations of DL0410, compound 6-1 and compound 7-6 (0.1, 0.3, 1 μM for AChE, and 0.3, 1, 3 μM for BuChE) with the incubation of five different substrate concentrations (1.25, 2.5, 5, 10, 20 mM for AChE, and 2, 4, 8, 16, 32 mM for BuChE). […] (n = 3; a = mM^−1; b = min/ΔA).
(§3) Figure 7 Ki values were determined by Dixon plots. […] Figure D–F presented the Dixon plots of DL0410, compound 6-1 and compound 7-6 on BuChE inhibitory activity, respectively. […] (n = 3; b = min/ΔA).
(§4) It is important to determinate the type of inhibition in an effort to understand the mechanism of inhibition and the binding sites of the inhibitor sites. […]

BuChE [4] = target: T1, BuChE; assay: BuChE kinetic study (Lineweaver-Burk and Dixon plots); conditions: for Ki: Dixon plot, inhibitor 0.3, 1, 3 μM, five substrate concentrations, n = 3; for type of inhibition of BuChE: Lineweaver-Burk plot
Protocol: as §1, §2, §3, §4

[5] = AChE from SD rat brain homogenate, ASCh substrate, 60 min, 37 °C, read-out: IC50(μM) AChE

T2 sequence (P37136 32-614): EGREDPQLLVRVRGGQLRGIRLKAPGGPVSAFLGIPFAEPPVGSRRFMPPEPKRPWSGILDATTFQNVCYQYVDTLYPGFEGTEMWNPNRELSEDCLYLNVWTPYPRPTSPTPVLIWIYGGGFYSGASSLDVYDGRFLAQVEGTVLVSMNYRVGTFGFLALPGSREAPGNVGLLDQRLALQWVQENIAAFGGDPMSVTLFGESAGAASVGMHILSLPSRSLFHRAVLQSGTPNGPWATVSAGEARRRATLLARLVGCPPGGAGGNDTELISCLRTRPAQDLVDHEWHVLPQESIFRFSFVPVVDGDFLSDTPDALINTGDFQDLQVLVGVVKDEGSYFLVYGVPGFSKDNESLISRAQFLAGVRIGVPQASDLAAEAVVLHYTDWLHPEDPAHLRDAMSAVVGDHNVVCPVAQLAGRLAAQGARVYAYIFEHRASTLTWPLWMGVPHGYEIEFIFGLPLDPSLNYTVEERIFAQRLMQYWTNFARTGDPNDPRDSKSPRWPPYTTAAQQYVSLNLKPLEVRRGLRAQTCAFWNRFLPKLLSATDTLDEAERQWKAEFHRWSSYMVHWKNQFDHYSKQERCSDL
T1 sequence (P06276 29-602): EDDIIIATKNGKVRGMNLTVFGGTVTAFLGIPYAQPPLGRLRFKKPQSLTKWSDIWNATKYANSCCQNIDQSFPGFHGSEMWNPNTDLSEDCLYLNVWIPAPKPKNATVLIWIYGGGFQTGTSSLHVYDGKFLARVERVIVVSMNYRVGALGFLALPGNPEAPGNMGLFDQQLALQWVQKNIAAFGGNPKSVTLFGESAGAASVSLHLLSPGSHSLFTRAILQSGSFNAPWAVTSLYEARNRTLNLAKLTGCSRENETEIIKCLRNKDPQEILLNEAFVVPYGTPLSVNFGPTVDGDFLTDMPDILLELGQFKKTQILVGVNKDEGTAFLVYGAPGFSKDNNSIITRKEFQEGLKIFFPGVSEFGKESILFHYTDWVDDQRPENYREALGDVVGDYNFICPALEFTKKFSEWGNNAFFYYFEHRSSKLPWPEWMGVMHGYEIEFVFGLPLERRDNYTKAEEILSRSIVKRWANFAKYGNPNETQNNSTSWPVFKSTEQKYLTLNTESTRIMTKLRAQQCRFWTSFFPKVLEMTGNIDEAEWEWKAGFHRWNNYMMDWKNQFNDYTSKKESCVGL

SMILES	IC50 (BuChE [1]; read-out: IC50(μM) BuChE)	IC50 (AChE [2]; [5])	further results
O=C(CCN1CCOCC1)c1ccc(-c2ccc(C(=O)CCN3CCOCC3)cc2)cc1 [Compound 1-15]	< 1 µM		
CCN(C)C(=O)Oc1ccc(-c2ccc(C(=O)CCN3CCCCC3)cc2)cc1 [Compound 7-5]			IC50 (BuChE [1]; IC50(μM) BuChE): 0.2 µM; IC50 (AChE [2]): 3.35 µM
CN(C)CCC(=O)c1ccc(Cc2ccc(C(=O)CCN(C)C)cc2)cc1 [Compound 3-5]	1.72 µM	3.32 µM	
O=C(CCN1CCC(N2CCCCC2)CC1)c1ccc(-c2ccc(C(=O)CCN3CCC(N4CCCCC4)CC3)cc2)cc1 [Compound 1-19]	> 200 µM	0.25 µM	
O=C(CCNC1CCCCC1)c1ccc(-c2ccc(C(=O)CCNC3CCCCC3)cc2)cc1 [Compound 1-16]	1.91 µM	2.15 µM	
CN(C)CC(=O)c1ccc(C(C)(C)c2ccc(C(=O)CN(C)C)cc2)cc1 [Compound 4-2]	5.95 µM	54.4 µM	
CC(C)(c1ccc(C(=O)CCN2CCOCC2)cc1)c1ccc(C(=O)CCN2CCOCC2)cc1 [Compound 4-5]	16.3 µM	15.7 µM	
O=C(CCN1CCCCC1)c1ccc(Oc2ccc(C(=O)CCN3CCCCC3)cc2)cc1 [Compound 5-1]	5.68 µM	0.89 µM	
O=C(CCN1CCCCC1)c1ccc2sc3ccc(C(=O)CCN4CCCCC4)cc3c2c1 [Compound 6-2]	1.71 µM	2.03 µM	
CN(C)CCC(=O)c1ccc(C(C)(C)c2ccc(C(=O)CCN(C)C)cc2)cc1 [Compound 4-1]	6 µM	4.89 µM	
O=C(CCN1CCOCC1)c1ccc(Cc2ccc(C(=O)CCN3CCOCC3)cc2)cc1 [Compound 3-2]	7.65 µM	7.09 µM	
O=C(CCN1CCCCC1)c1ccc(-c2ccc(C(=O)CCN3CCCCC3)cc2F)cc1 [Compound 7-6]	0.44 µM	0.03 µM	Ki (AChE [3]): 0.55 ± 0.2 µM; type of inhibition of AChE (AChE [3]): mixed-type; Ki (BuChE [4]): 1.63 ± 0.18 µM; type of inhibition of BuChE (BuChE [4]): mixed-type
CC1CCN(CC(=O)c2ccc(-c3ccc(C(=O)CN4CCC(C)CC4)cc3)cc2)CC1 [Compound 1-7]	36.6 µM	49.1 µM	
O=C(CCN1CCCCC1)c1ccc(Cc2ccc(C(=O)CCN3CCCCC3)cc2)cc1 [Compound 3-1]	4.2 µM	4.11 µM	
O=C(CCN1CCCCC1)c1ccc(Sc2ccc(C(=O)CCN3CCCCC3)cc2)cc1 [Compound 5-2]	3.44 µM	3.89 µM	
C=C(CN1CCCCC1)C(=O)c1ccc(-c2ccc(C(=O)C(=C)CN3CCCCC3)cc2)cc1 [Compound 7-2]	1.55 µM	17.1 µM	
CC(C)(c1ccc(C(=O)CN2CCCCC2)cc1)c1ccc(C(=O)CN2CCCCC2)cc1 [Compound 4-4]	2.93 µM	17.4 µM	
O=C(CCN1CCCCC1)c1ccc2oc3ccc(C(=O)CCN4CCCCC4)cc3c2c1 [Compound 6-1]	0.61 µM	0.06 µM	Ki (AChE [3]): 0.42 ± 0.04 µM; type of inhibition of AChE (AChE [3]): mixed-type; Ki (BuChE [4]): 0.74 ± 0.16 µM; type of inhibition of BuChE (BuChE [4]): mixed-type

SMILES	IC50 (BuChE [1]; read-out: IC50(μM) BuChE)	IC50 (AChE [2]; [5])	further results
CCN(CC)CCC(=O)c1ccc(-c2ccc(C(=O)CCN(CC)CC)cc2)cc1 [Compound 1-9]	< 1 µM		
CN(CCC(=O)c1ccc(-c2ccc(C(=O)CCN(C)Cc3ccccc3)cc2)cc1)Cc1ccccc1 [Compound 1-17]	6.56 µM	3.33 µM	
O=C(CCCN1CCCCC1)c1ccc(-c2ccc(C(=O)CCN3CCCCC3)cc2)cc1 [Compound 1-5]	1.88 µM	0.41 µM	
CN(C)CCCCC(=O)c1ccc(CCc2ccc(C(=O)CCCCN(C)C)cc2)cc1 [Compound 2-10]	2.77 µM	3.96 µM	
COc1ccc2[nH]cc(CCNCC(=O)c3ccc(-c4ccc(C(=O)CNCCc5c[nH]c6ccc(OC)cc56)cc4)cc3)c2c1 [Compound 1-18]	> 200 µM	9.52 µM	
O=C(CCN1CCCCC1)c1ccc(-c2ccc(C(=O)CN3CCCCC3)cc2)cc1 [Compound 1-6]	4.87 µM	3.32 µM	
CN1CCN(CCC(=O)c2ccc(Cc3ccc(C(=O)CCN4CCN(C)CC4)cc3)cc2)CC1 [Compound 3-4]	24.4 µM	7.55 µM	
O=C(CCN1CCCCC1)c1ccc([S+]([O-])c2ccc(C(=O)CCN3CCCCC3)cc2)cc1 [Compound 5-3]	> 200 µM	14.1 µM	
O=C(c1ccc(-c2ccc(C(=O)N3CCCCC3)cc2)cc1)N1CCCCC1 [Compound 1-2]	2.22 µM	0.84 µM	
O=C(CCN1CCCCC1)c1ccc(CCc2ccc(C(=O)CCN3CCCCC3)cc2)cc1 [Compound 2-3]	3.41 µM		
O=C(CCCCN1CCC1)c1ccc(CCc2ccc(C(=O)CCCCN3CCC3)cc2)cc1 [Compound 2-6]	> 200 µM	12.2 µM	
O=C(CN1CCCCC1)c1ccc(CCc2ccc(C(=O)CN3CCCCC3)cc2)cc1 [Compound 2-1]		75.5 µM	
CC(C)(c1ccc(C(=O)CCN2CCCCC2)cc1)c1ccc(C(=O)CCN2CCCCC2)cc1 [Compound 4-3]	3.09 µM	3.07 µM	
CN(C)CCC(=O)c1ccc(-c2ccc(C(=O)CCN(C)C)cc2)cc1 [Compound 1-8]	< 1 µM		
O=C(CCN1CCCCC1)c1ccc2c(c1)c1cc(C(=O)CCN3CCCCC3)ccc1n2C(=O)CCN1CCCCC1 [Compound 7-7]	4.79 µM	1.42 µM	
CN1CCN(CC(=O)c2ccc(Cc3ccc(C(=O)CN4CCN(C)CC4)cc3)cc2)CC1 [Compound 3-3]	40 µM	48.5 µM	
O=C(COCCN1CCCCC1)c1ccc(-c2ccc(C(=O)OCCN3CCCCC3)cc2)cc1 [Compound 7-4]	> 200 µM	18.5 µM	
CCN(C)C(=O)Oc1ccc(-c2ccc(OC(=O)N(C)CC)cc2)cc1 [Compound 7-3]			IC50 (BuChE [1]; IC50(μM) BuChE): 0.06 µM; IC50 (AChE [2]): 34.1 µM
